One series deals with L02 cells. Description: MTT cell viability assay, normal liver cells. It is filed as cell-based. The following applies: L02 normal human liver cells, 24 h. The procedure:
(§1) Cell viability was determined by detecting the absorbance at 570 nm in a microquant plate reader (Thermo Fisher), triplicate wells were analyzed at each dose.
For orientation: Tetrazolium assays rely on reduction of a dye to a coloured formazan, in cell work by metabolically active cells.

Another series deals with HUVEC cells. Description: MTT cell viability assay, endothelial cells. Type of series: cell-based. The following applies: Homo sapiens, 24 h. The procedure: as §1
For another series, the system named is B16-F10 cells. Description: MTT cell viability assay. It is filed as cell-based, murine. The settings on record: Mus musculus, B16-F10, 24 h, read-out: IC50, cell proliferation. Here is the method:
as §1

Series [1] deals with VCAM-1. Description: Flow cytometry of surface expression on IL-1β-stimulated HUVECs. It is filed as cell-based, human. The following applies: 5 μM, 24 h. The procedure: (§2) Cells expression of ICAM-1, VCAM-1, E-selectin, integrin α4, α5, α6 and β1 were performed via flow cytometry. […] After incubation, the cells were washed twice with PBS and collected for staining. The cells and primary antibodies were incubated at 4°C for 20 min in the dark. After washing with staining buffer, cell adhesion molecule (ICAM-1, VCAM-1 and E-selectin) and integrins (integrin α6 and β1) expression on cell-surface were measured by BD FACSAriaIII flow cytometry. The data were processed by FlowJo software and expressed as the mean fluorescent intensities.
On the technique in general: A flow cytometer gives signals particle by particle.

The test system of series [2] is ICAM-1. The description is as above. Type of series: cell-based, human. The following applies: 5 μM, 24 h. The procedure: as §2
In series [3] the test system is B16-F10 melanoma lung metastasis. Description: B16-F10/C57BL/6 mouse melanoma lung metastasis model. The following applies: 80 mg/kg/day oral, 28 days. It is filed as in vivo, C57BL/6 mice. Here is the method:
(§3) To establish the lung metastasis model, B16-F10 cells were harvested, washed with serum-free RPMI 1640 and resuspended to give the appropriate concentrations in PBS, and injected into the tail vein of C57BL/6 mice at a density of 5 × 10^4/200 μL. […] Mice weight was measured every four days for 7 times. Mice were sacrificed (n = 6) at the 28st days after tumor inoculation. The heart, liver, spleen, lung, kidney and small intestine were excised, washed with PBS, and fixed in 10% neutral buffered formalin, and these tissues were then paraffin embeddedand stained with hematoxylin and eosin (H&E). The number of surface tumor nodules was determined by visual inspection using a magnifying glass, and histological observations were performed under a microscope (Zeiss, Germany).

Series [4] concerns integrin α6, integrin β1, FAK, Src, paxillin and PTEN. The experiment in a line: Western blot of focal adhesion signaling proteins in HepG2 cells. Type of series: cell-based, human. The following applies: 24 h, UA 5 μM, US597 0.2, 1, 5 μM. The procedure:
Cell dishes were washed with cold phosphate-buffered saline and treated with lysis buffer for several seconds at an ice-cold bath, and then cell lysates were clarified by centrifugation at 12,000 g for 5 min under 4°C and the supernatants were recovered. The concentrations of proteins were determined by the BCA method. Samples with equivalent amounts of proteins were resolved by SDS-PAGE using a 10% gel. Proteins were transferred to a polyvinyldene difluoride (PVDF) membrane. The membranes were washed for ten minutes with TBS (20 mM Tris, 160 mM NaCl) and were blocked by blocking solution (10 mM Tris-HCl (pH 7.4), 125 mM NaCl, 0.1% Tween 20, and 5% skim milk). The blots were washed three times with TBST(20 mM Tris, 160 mM NaCl, 0.1% Tween 20), and they were incubated with specific primary antibodies diluted 1:1000 in TBST solution overnight at 4°C. Subsequently, the blots were washed three times with TBST (20 mM Tris, 160 mM NaCl, 0.1% Tween 20), and then the blots were incubated with secondary antibody (horseradish peroxidase conjugated goat anti-rabbit-IgG) diluted 1:5000 in TBST solution for 2 h at 37°C. […] Chemiluminescent signals were generated using a Super Signal West Pico Chemiluminescent Substrate kit (Pierce), and detected by using the ChemiDoc XRS system (Bio-Rad). The target proteins expression was quantified by use of Image Lab analysis software (Bio-Rad).

The nature of series [5]: Toxicity in tumor metastatic mice (body weight, histopathology, blood analysis). The following applies: 28 days. Type of series: in vivo, C57BL/6 mice. The procedure:
as §3

In series [6] the test system is ICAM-1. Description: qRT-PCR of mRNA in IL-1β-stimulated HUVECs. It is filed as cell-based, human. The following applies: IL-1β 1 ng/mL 4 h, then 24 h, UA 5 μM, US597 0.2, 1, 5 μM. For orientation: Real-time PCR tracks product formation cycle by cycle.
The test system of series [7] is nine cancer cell lines (MHCC-97H, MHCC-97L, HepG2, M619, MDA-MB-231, MCF-7, HT29, SW620, B16-F10). The experiment in a line: MTT cell viability assay, span over nine cancer cell lines. Type of series: cell-based. The following applies: 24 h, read-out: IC50 to suppress cell proliferation, span over nine cancer cell lines. The procedure: as §1
The subject of series [8] is HepG2 cells. The experiment in a line: Transwell matrigel invasion assay. It is filed as cell-based, human. The following applies: HepG2, 5 μM, 24 h; control 88 ± 5. The procedure: An invasion assay was carried out using 24-well plate. The […] pore-sized transwell inserts were coated with matrigel at 1 mg/mL on the upper chamber. The lower chamber was filled with medium containing 20% FBS as chemoattractant agents. The coated filter and upper chamber were laid over the lower chamber. […] After incubation for 24 h at 37°C, cells were fixed in methanol for 20 min. The cells on the inner layer were softly removed with a cotton swab, and the adherent cells on undersurface of the insert were stained with 0.1% crystal violet dye for 15 min. The filters were washed with PBS and images were taken. The invading cells were counted and photographed under a light microscope (Zeiss, Germany) at × 200 magnification. Five fields were counted per filter in each group and the experiment was conducted in triplicate.

Series [9] concerns HepG2 cells. Description: MTT cell viability assay. It is filed as cell-based. The settings on record: Homo sapiens, HepG2, 24 h, read-out: IC50, cell proliferation. The procedure: as §1
Another series relates to MHCC-97H cells. The experiment in a line: MTT cell viability assay. Type of series: cell-based. The following applies: Homo sapiens, MHCC97H, 24 h, read-out: IC50, cell proliferation. Here is the method: as §1
The subject of the next series is MHCC-97L cells. The experiment in a line: MTT cell viability assay. The settings on record: Homo sapiens, MHCC97L, 24 h, read-out: IC50, cell proliferation. It is filed as cell-based. The procedure: as §1
The subject of series [10] is VCAM-1. Description: qRT-PCR of mRNA in IL-1β-stimulated HUVECs. It is filed as cell-based, human. The settings on record: IL-1β 1 ng/mL 4 h, then 24 h, 5 μM.
Series [11] concerns ICAM-1. The experiment in a line: ICAM-1 immunohistochemistry of lung tissue. Type of series: in vivo, C57BL/6 mice. The settings on record: UA group and high dose US597 group, P < 0.01. Here is the method:
Frozen sections (6 μm) were stained with anti-ICAM-1 antibody as previously described. ICAM-1 expression in lung tissue was performed with avidin-biotin complex (ABC) method. Results for ICAM-1 positive cells are shown as × 200 magnification.

Series [12] relates to HepG2 cells. Description: Wound healing migration assay. It is filed as cell-based, human. The following applies: HepG2, 24 h after wounding; UA 5 μM, US597 0.2, 1, 5 μM. Here is the method: SW620, B16-F10 and HepG2 cells (5 × 10^5 cells per well) were plated in 6-well plates for 24 h, a perpendicular scratch wound was generated by scratching with a 10 μL pipette tip. […] Cells were photographed using a light microscope (Zeiss, Germany) at 0 and 24 h after the drug treatment. The distance that cells migrated through the scribed area was determined by measuring the wound width at 24 h after treatment, and subtracting it from the wound width at 0 h. Experiments were repeated at least three times.

Turning to `C[C@H]1[C@H](C)CC[C@]2(C(=O)O)CC[C@]3(C)C(=CC[C@@H]4[C@@]5(C)CC[C@H](O)C(C)(C)[C@@H]5CC[C@]43C)[C@H]12` [UA, 3β-hydroxy-urs-12-en-28-oic acid], the IC50 in the series on L02 cells was 41.9 µM; in the series on HUVEC cells it was 51.1 µM; in the series with B16-F10 cells it was 31.7 µM; in series [7], 31.7 to 60.1 µM; in the series with HepG2 cells [9] it was 33.1 µM; with MHCC-97H cells, 36.1 µM. Besides, the IC50 in the series with MHCC-97L cells was found to be 32.2 µM. Moreover, the “VCAM-1 expression, % of control” value in the series on VCAM-1 [1] is reported as “no significant effect”. Moreover, the “ICAM-1 expression, % of control” value in the series on ICAM-1 [2] was “no significant effect”. The “inhibitory rate, number of lung metastatic nodules” value in [3] was 14.45%. In addition, the “protein expression of integrin α6, integrin β1, FAK, Src, paxillin and PTEN” value in [4] was “the effect was prominent”. In addition, the LYMPH in series [5] (80 mg/Kg, normal range 0.9 – 9.3, control 6.82 ± 2.17) was 3.65 ± 1.48 × 10^9/L. The WBC in series [5] (80 mg/Kg, normal range 1.8 – 10.7, control 9.31 ± 1.28) is 7.14 ± 0.33 × 10^9/L. The RBC in series [5] (80 mg/Kg, normal range 6.36 – 9.42, control 9.04 ± 0.27) is reported as 8.84 ± 2.31 × 10^12/L. Besides, in [5] (80 mg/Kg, normal range 110.0 – 151.0, control 136.42 ± 1.15), the HGB was found to be 131.56 ± 0.89 g/L. Moreover, the PLT in series [5] (80 mg/Kg, normal range 592 – 2972, control 1583 ± 126) is 1461 ± 251 × 10^9/L. In addition, the animal body loss entry in series [5] (80 mg/kg daily oral) was “did not induce significant animal body loss”. In addition, the “histopathology of heart, liver, spleen, kidney and small intestine” value in series [5] (80 mg/kg daily oral, H&E) is reported as “no remarkable histopathological abnormalities or lesions”. In the series with ICAM-1 [6], the “ICAM-1 mRNA expression” value is “inhibited the induction”. In addition, in the series with HepG2 cells [8], the “average number of invaded cells” value came out at 75 ± 3. Moreover, the “VCAM-1 mRNA expression” value with VCAM-1 [10] is recorded as “almost no change”. Besides, in the series on ICAM-1 [11], the “ICAM-1 expression in lung tissue vs control” value was “significantly decreased”. Besides, the “cell migration in wound healing assay” value in the series on HepG2 cells [12] is given as “showed less migration in wound area”.

The record behind these values is article PMC4496218 (Oncotarget, 2015).
